Patent publication US20250177366A1, “COMPOSITIONS AND METHODS FOR ALLEVIATING PAIN AND REDUCING ADVERSIVENESS OF STIMULI” (UNIVERSITY OF WASHINGTON, priority 2021, published 2025)

Assays:
Type in all cases: in vivo, Zebrafish (Danio rerio)
larval zebrafish [1] = assay: Thermal preference assay (28.5° C. vs 37.5° C.), non-sensitized; settings: for effect of co-applied drug on AS1-induced attraction to noxious heat / temperature choice, drug alone / effect of structural analog on temperature preference (time spent in the 28.5° C. zone): 28.5° C. vs 37.5° C.; for effect of co-applied drug on AS1-induced attraction to noxious heat: drug + 5 μM AS1; for temperature choice, drug alone: without AS1; for Reverses 28.5° C. Choice?: temperature preference 28.5° C. vs 37.5° C., larval zebrafish; for effect of structural analog on temperature preference (time spent in the 28.5° C. zone): at the tested concentration
Experimental: Thermal preference assay. […] Once an entire plate was loaded with fish, the appropriate incubation solution was added. […] Following incubation in all experiments, the choice testing plate was transported to a dual solid-state heat/cool plate (AHP-1200° C. P; Teca) and centered such that half of each arena was positioned over each side of the heat/cool plate. […] Locomotor behavior was recorded using a Canon high-definition video camcorder suspended at a fixed position above the choice testing plate. Each trial was four minutes in duration.
For single-incubation assays (e.g. testing single chemicals), larval zebrafish were caught in 100 μL E2 media and 100 μL of the control (2% DMSO) or test chemical at 2× concentration was added to each well to achieve the final desired concentration. […] The final DMSO concentration in all solutions was 1%.

larval zebrafish [2] = assay: Light/dark preference (phototaxis) assay
Experimental: Following this, whether the effects of AS1 were restricted to somatosensation or were generalizable to other aversive stimuli were tested. Thus, the effects of AS1 on light/dark preference were tested. Zebrafish larvae prefer white light environments to dark environments and this preference is inhibited by anxiolytics, analagous to studies in rodents (Lau et al., Proc. Natl. Acad. Sci. U.S.A 2011; 108:2581-2586; Burgess et al., Curr. Biol. 2010; 20:381-386). To measure light/dark preference, larval zebrafish were placed in a square arena and given the choice between a bright white light and total darkness, and the number of larvae on each side was quantified at 30 second intervals. Five 4-minute trials were performed, where the light and dark sides of the arena were reversed between trials. […] Given the precise control over stimulus luminosity in this assay, the effects of altering the intensity of the dark stimulus were explored next. In this gradient version of the phototaxis assay, larval zebrafish were given the choice between a bright white environment and one of six potential shades of darkness, ranging from light gray to solid black. […] This implies that the valence of non-painful noxious stimuli is precisely encoded in an intensity-dependent manner, and that AS1 exerts its effects in proportion to the intensity of the stimulus.
Light/dark preference (phototaxis) assay. In the light/dark preference assay, randomly-selected 6 dpf larval zebrafish (N of 30 to 40) were carefully pipetted onto a 10 cm square petri dish using a 10 mL pipette pump equipped with a glass wide-bored Pasteur pipet. As much E2 media as possible was carefully removed using the same pipet. For single incubation experiments, 30 mL of 1× solutions of the control or test chemical was added to each petri dish, and fish were incubated for 10 minutes at 28.5° C. For double incubation experiments, 15 mL of 1× solutions containing control (DMSO) or test chemicals was added to the larvae-containing petri dish. Following a ten-minute incubation period, 15 mL of the second incubation solution (1× control or test chemical +/−2× AS1) was added to the petri dish, and the fish were incubated for a second ten minute block. The final concentration of DMSO in all solutions was 1%. In all double-incubation experiments, the final concentration of AS1 was 2.5 μM. These petri dishes were then positioned over a horizontally-oriented computer monitor displaying a PowerPoint presentation. For standard light/dark preference assays, a blank white slide was initially presented for one minute, after which the presentation would automatically advance to a slide in which half of the display was black. The petri dish with larvae was positioned such that exactly half was directly over the dark side, and the other half was directly over the light side. After four minutes, the presentation automatically advanced to a slide in which the black and white halves switched places. A total of five four-minute trials, with the dark/light halves automatically switching position between trials, were recorded. For the gradient phototaxis assay, experiments were performed identically, except that the “dark” half of the powerpoint presentation was one of six shades of gray.
In all experiments, an initial still frame of video was taken during the minute where the blank slide was presented in order to quantify the total number of fish in the experiment. Following this, still frames were taken at 30 second intervals for each trial ([…]), and the number of fish present in the light half of the arena were counted. To generate the graphs that looked at swimming patterns over time in a trial (e.g., FIG. 3D), the average percentage of fish in the light at each time point (T=0, T=30, etc.) was calculated across all five trials. […]

larval zebrafish [3] = assay: AITC aversion assay (chemical attraction/aversion, AITC-infused agarose)
From the text: Whether the effects of AS1 extended beyond noxious temperature sensation or could also impact other somatosensory modalities was next explored. To accomplish this, a chemical attraction/aversion assay where a thin layer of agarose was deposited along the edges of a square arena (Jordi et al., Sci. Adv. 2018; 4:1-15) were adapted. Along one wall, the agarose contained the chemical to be tested, while the other three walls were lined with control agarose. It was anticipated that a chemical gradient would be established as chemical diffused from the agarose into the surrounding water. Larvae were pre-incubated in either vehicle or AS1 and then added to the arena and the distance of each larva from the chemical-infused agarose was measured. In control experiments where all four walls of the arena were lined with agarose only, AS1 and vehicle-treated larvae were dispersed evenly throughout the arena (FIG. 3). […] When the nociceptive chemical AITC (100 mM, 10,000× maximal effective dose) was tested, vehicle-treated larvae swam away from the AITC source.
Chemical attraction/aversion assays. The agarose attraction/aversion assay was adapted from previously described experiments (Jordi et al., Sci. Adv. 2018; 4:1-15). For the AITC aversion assay, AITC and DMSO were added to molten 0.8% agarose to achieve a final concentration of 100 mM AITC and 2% DMSO. For the AS1 attraction/aversion assay, AS1 and DMSO were added to 0.8% molten agar to achieve final concentrations of 50 mM and 2%, respectively. To construct the test chambers, the lids of 10×10 cm square petri dishes (insert cat #and company) were lined on four sides with either the test (chemical-containing) or plain agarose (300 μL per side) and allowed to solidify. For all experiments, 30-40 randomly selected 6 dpf zebrafish were caught with a 10 mL pipette pump (Bel-Air Products, cat #: 13683C) equipped with a glass wide-bored Pasteur pipet (Fisher Scientific, cat #: 22-037-540) and deposited into a standard 10 cm diameter petri dish (Fisher Scientific, cat #: 07-202-031). As much E2 media as possible was carefully removed using the same pipette. For single incubation experiments, 30 mL of 1× solutions of the control or test chemical was added to each petri dish, and fish were incubated for 10 minutes at 28.5° C. For double incubation experiments, 15 mL of 1× solutions containing control (DMSO) or test chemicals was added to the larvae-containing petri dish. Following a ten minute incubation, 15 mL of the second incubation solution (1× control or test chemical +/−2× AS1) was added to the petri dish, and the fish were incubated for a second ten minute block. The final concentration of DMSO in all solutions was 1%. In all double-incubation experiments, the final concentration of AS1 was 5 μM unless otherwise noted. After completion of the last incubation period, the contents of each petri dish were poured into separate agarose-lined square dishes. Swimming behavior was immediately recorded for 20 minutes using the same high-definition camcorder in the thermal preference assays.

Compound	effect of co-applied drug on AS1-induced attraction to noxious heat (larval zebrafish [1])	temperature choice, drug alone (larval zebrafish [1])	Reverses 28.5° C. Choice? (larval zebrafish [1])	effect of structural analog on temperature preference (time spent in the 28.5° C. zone) (larval zebrafish [1])	also measured
CN1CCN(CCc2ccc(Cl)c(Cl)c2)CC1 [BD1063]	At no concentration did BD1063 influence AS1-induced attraction towards noxious heat	significantly chose the 28.5 °C side			
CC(N)Cc1c[nH]c2ccc(OCc3cccs3)cc12 (centres unmarked) [BW723C86]	At no concentration did BW723C86 influence AS1-induced attraction towards noxious heat	significantly chose the 28.5 °C side			
O=C1CC2(CCCC2)CC(=O)N1CCCCN1CCN(c2ncccn2)CC1 [Buspirone, buspirone]		had no effect upon thermal preference			
CC(C)c1ccc(NC(=O)c2cccnc2)cc1 [Compound 5538018, N-(4-isopropylphenyl)nicotinamide]			No		
CC(C)c1ccc(C(=O)Nc2cccnc2)cc1 [Compound 7301738, 4-isopropyl-N-3-pyridinylbenzamide]			No	only had a small, if still significant, effect on temperature preference	
Cc1ccc(C(=O)Nc2ccncc2)c(C)c1 [Compound 7755382, 2,4-dimethyl-N-4-pyridinylbenzamide]			No	prevented an analogue from replicating the effects of AS1	
CCc1ccc(C(=O)Nc2cccnc2)cc1 [Compound 7947669, 4-ethyl-N-3-pyridinylbenzamide]			No		
Cc1cc(C)c(C(=O)Nc2ccncc2)c(C)c1 [Compound 9047736, 2,4,6-trimethyl-N-4-pyridinylbenzamide]			No	prevented an analogue from replicating the effects of AS1	
CCCc1ccc(C(=O)Nc2ccncc2)cc1 [Compound 9089110, 4-propyl-N-4-pyridinylbenzamide]			No preference for either temperature	abolished preference for either side	effect of structural analog on temperature preference (time spent in the 28.5° C. zone) (larval zebrafish [1]; listed as Analog 9089110): completely ablated aversion
Cc1noc(C)c1C(=O)Nc1ccc(C(C)C)cc1 [Compound 9089180, N-(4-isopropylphenyl)-3,5-dimethyl-4-isoxazolecarboxamide]			No	had a significant (if small) influence upon temperature choice behavior	
CCCc1ccc(C(=O)Nc2cccnc2)cc1 [Compound 9090934, 4-propyl-N-3-pyridinylbenzamide]			No	has no effect upon temperature preference	
CCCCc1ccc(C(=O)Nc2ccncc2)cc1 [Compound 9098532, 4-butyl-N-4-pyridinylbenzamide]			No	prevented an analogue from replicating the effects of AS1	
COc1ccc(CC2NCCc3c2[nH]c2ccc(C)cc32)c(Cl)c1OC (centres unmarked) [LY266097]	At no concentration did LY266097 influence AS1-induced attraction towards noxious heat	significantly chose the 28.5 °C side			
COc1ccc(Br)cc1CCc1c(F)cccc1C1=NCCN1 [ML00253764]	At no concentration did ML00253764 reduce AS1-induced attraction towards noxious heat	slightly potentiate preference towards the 28.5 °C zone			
C=CCN1CC[C@]23c4c5ccc(O)c4O[C@H]2C(=O)CC[C@@]3(O)[C@H]1C5 [Naloxone, naloxone]	significantly chose the 37.5 °C side	significantly chose the 28.5 °C side of the arena			effect of co-applied drug on AS1-induced preference for the dark (larval zebrafish [2]; drug + 2.5 μM AS1): significantly preferred the dark, regardless of whether 1 μM naloxone was applied; light/dark preference, drug alone (larval zebrafish [2]; without AS1): significantly chose the light side of the arena; effect of co-applied drug on AS1-induced attraction to AITC (larval zebrafish [3]; AITC 100 mM in agarose, drug + AS1 (5 μM; 2.5 μM with SKF and sumanirole)): did not reverse AS1-induced attraction towards AITC; AITC aversion, drug alone (larval zebrafish [3]; AITC 100 mM in agarose, without AS1): did not affect AITC avoidance
O=C(OCCN1CCOCC1)C1(c2ccccc2)CCCCC1 [PRE-084]	At no concentration did PRE-084 influence AS1-induced attraction towards noxious heat	potentiating preference for the 28.5 °C zone			
CN1CCc2cc(Cl)c(O)cc2[C@@H](c2ccccc2)C1 [SCH23390]					concentration abolishing AS1-induced preference for the dark entirely (larval zebrafish [2]; SCH 10-20 μM + 2.5 μM AS1): 15 µM; concentrations that partially attenuate AS1-induced attraction to AITC (larval zebrafish [3]; SCH 1-20 μM + 5 μM AS1): ≥ 5 µM
Cn1c(=O)c2c(ncn2C)n(C)c1=O [caffeine]		did not affect thermal preference for 28.5 °C			
CN1C(=O)CN=C(c2ccccc2)c2cc(Cl)ccc21 [diazepam]		potentiated preference for 28.5 °C			
